Measurements taken from US12678446B2 (PFIZER INC., priority 2020, dated 2026).

Columns and labels:
[1] = system: RSV (RSV A2 ECACC, 0709161v); experiment: RSV plaque reduction assay; type: cell-based, respiratory syncytial virus; details: human respiratory syncytial virus, HepG2, read-out: RSV A2 Plaque EC50, RSV A2 in Hep-G2 cells; mean of at least two experiments unless noted (n = 1)
Summary of the method: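 Eight-point compound dilutions were premixed with RSV A2 (100 PFU/well) and applied to confluent Hep-G2 cells for 2 h, followed by a 2-day incubation at 37° C. under compound-containing 0.8% CMC overlay. EC50 comes from immunostained plaque counts relative to untreated virus wells, averaged over ≥2 runs.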

cell toxicity CC50 = type: cell-based; details: human; Hep-G2 cells; mean of at least two experiments; read-out: Cell Cytotoxicity CC50

| Structure (SMILES) | EC50 [1] | CC50 (cell toxicity CC50) |
| --- | --- | --- |
| C[C@@H]1CCn2nc(-c3ccc(CO)nc3)c(C(=O)N[C@H]3N=C(c4ccccc4)c4cccc(F)c4NC3=O)c2O1 [Example 155, (5R)-N-[(3S)-9-fluoro-2-oxo-5-phenyl-1,3-dihydro-1,4-benzodiazepin-3-yl]-2-[6-(hydroxymethyl)pyri-din-3-yl]-5-methyl-6,7-dihydro-5H-pyrazolo[5,1-b][1,3]oxazine-3-carboxamide] | 219 nM | > 25000 nM |
| C[C@@H]1CCn2nc(-c3ccc(N4CCOCC4)nc3)c(C(=O)N[C@H]3N=C(c4ccccc4)c4ccccc4NC3=O)c2O1 [Example 55, (5R)-5-Methyl-2-(6-morpholino-3-pyridyl)-N-[(3S)-2-oxo-5-phenyl-1,3-dihydro-1,4-benzodiazepin-3-yl]-6,7-dihydro-5H-pyrazolo[5,1-b][1,3]oxazine-3-carboxamide] | 246 nM | > 25000 nM |
| COc1cccc(F)c1-c1nn2c(c1C(=O)N[C@H]1N=C(c3ccccc3)c3cccc(F)c3NC1=O)OCCC2 [Example 139, 2-(2-Fluoro-6-methoxyphenyl)-N-[(3S)-9-fluoro-2-oxo-5-phenyl-1,3-dihydro-1,4-benzodiazepin-3-yl]-6,7-dihydro-5H-pyrazolo[5,1-b][1,3]oxazine-3-carboxamide] | 66 nM | > 25000 nM |
| CO[C@@H]1CCN(c2ccc(-c3nn4c(c3C(=O)N[C@H]3N=C(c5ccccc5)c5cccc(F)c5NC3=O)O[C@H](C)CC4)cn2)C1 [Example 145, (5R)-N-[(3S)-9-fluoro-2-oxo-5-phenyl-1,3-dihydro-1,4-benzodiazepin-3-yl]-2-[6-[(3R)-3-methoxypyrrolidin-1-yl]pyridin-3-yl]-5-methyl-6,7-dihydro-5H-pyrazolo[5,1-b][1,3]oxazine-3-carboxamide] | 278 nM | > 25000 nM |
| C[C@@H]1CCn2nc(-c3ccccc3F)c(C(=O)N[C@H]3N=C(c4ccccc4)c4ccccc4NC3=O)c2O1 [Example 24, (5R)-2-(2-Fluorophenyl)-5-methyl-N-[(3S)-2-oxo-5-phenyl-1,3-dihydro-1,4-benzodiazepin-3-yl]-6,7-dihydro-5H-pyrazolo[5,1-b][1,3]oxazine-3-carboxamide] | 77 nM | > 25000 nM |
| C[C@H]1CCn2nc(-c3cnn(CC(F)(F)F)c3)c(C(=O)N[C@H]3N=C(c4ccccc4)c4cccc(F)c4NC3=O)c2O1 [Example 157, (5S)-N-[(3S)-9-fluoro-2-oxo-5-phenyl-1,3-dihydro-1,4-benzodiazepin-3-yl]-5-methyl-2-[1-(2,2,2-trifluoroethyl)pyrazol-4-yl]-6,7-dihydro-5H-pyrazolo[5,1-b][1,3]oxazine-3-carboxamide] | 48 nM | > 25000 nM |
| Cc1ccccc1-c1nn2c(c1C(=O)N[C@H]1N=C(c3ccccc3)c3cccc(F)c3NC1=O)OCCC2 [Example 6, N-[(3S)-9-Fluoro-2-oxo-5-phenyl-1,3-dihydro-1,4-benzodiazepin-3-yl]-2-(2-methylphenyl)-6,7-dihydro-5H-pyrazolo[5,1-b][1,3]oxazine-3-carboxamide] | 165 nM | > 25000 nM |
| CCN(C(=O)OC(C)(C)C)C1COc2c(C(=O)N[C@H]3N=C(c4ccccc4)c4cccc(F)c4NC3=O)c(-c3ccccc3F)nn2C1 (stereo partly drawn) [Example 108, tert-butyl N-ethyl-N-[3-[[(3S)-9-fluoro-2-oxo-5-phenyl-1,3-dihydro-1,4-benzodiazepin-3-yl]carbamoyl]-2-(2-fluorophenyl)-6,7-dihydro-5H-pyrazolo[5,1-b][1,3]oxazin-6-yl]carbamate] | 117 nM | > 25000 nM |
| O=C(N[C@H]1N=C(c2ccccc2)c2cccc(F)c2NC1=O)c1c(-c2ccc(NC3CC3)nc2)nn2c1OCCC2 [Example 15, 2-[6-(Cyclopropylamino)pyridin-3-yl]-N-[(3S)-9-fluoro-2-oxo-5-phenyl-1,3-dihydro-1,4-benzodiazepin-3-yl]-6,7-dihydro-5H-pyrazolo[5,1-b][1,3]oxazine-3-carboxamide] | 30 nM | > 25000 nM |
| CC(C)C1CCn2nc(-c3ccccc3F)c(C(=O)N[C@H]3N=C(c4ccccc4)c4cccc(F)c4NC3=O)c2O1 (stereo partly drawn) [Example 8, N-[(3S)-9-fluoro-2-oxo-5-phenyl-2,3-dihydro-1H-1,4-benzodiazepin-3-yl]-2-(2-fluorophenyl)-5-(propan-2-yl)-5H,6H,7H-pyrazolo[3,2-b][1,3]oxazine-3-carboxamide] | 37 nM | > 25000 nM |
| Cc1ccc(-c2nn3c(c2C(=O)N[C@H]2N=C(c4ccccc4)c4cccc(F)c4NC2=O)O[C@H](C)CC3)cn1 [Example 77, (5R)-5-Methyl-2-(6-methylpyridin-3-yl)-N-[(3S)-9-fluoro-2-oxo-5-phenyl-1,3-dihydro-1,4-benzodiazepin-3-yl]-6,7-dihydro-5H-pyrazolo[5,1-b][1,3]oxazine-3-carboxamide] | 159 nM | > 25000 nM |
| C[C@@H]1CCn2nc(-c3cnn(C)c3)c(C(=O)N[C@H]3N=C(c4ccccc4)c4cccc(F)c4NC3=O)c2O1 [Example 98, (5R)-N-[(3S)-9-fluoro-2-oxo-5-phenyl-1,3-dihydro-1,4-benzodiazepin-3-yl]-5-methyl-2-(1-methylpyrazol-4-yl)-6,7-dihydro-5H-pyrazolo[5,1-b][1,3]oxazine-3-carboxamide] | 80 nM | > 25000 nM |
| C[C@@H]1CCn2nc(-c3ccc(S(C)(=O)=O)cc3F)c(C(=O)N[C@H]3N=C(c4ccccc4)c4cccc(F)c4NC3=O)c2O1 [Example 137, (5R)-2-(2-Fluoro-4-methylsulfonylphenyl)-N-[(3S)-9-fluoro-2-oxo-5-penyl-1,3-dihydro-1,4-benzodiazepin-3-yl]-5-methyl-6,7-dihydro-5H-pyrazolo[5,1-b][1,3]oxazine-3-carboxamide] | 15 nM | > 25000 nM |
| C[C@@H]1CCn2nc(-c3ccc(N4C[C@H]5C[C@@H]4CO5)nc3)c(C(=O)N[C@H]3N=C(c4ccccc4)c4cccc(F)c4NC3=O)c2O1 [Example 86, (5R)-5-Methyl-N-[(3S)-9-fluoro-2-oxo-5-phenyl-1,3-dihydro-1,4-benzodiazepin-3-yl]-2-[6-[(1R,4R)-2-oxa-5-azabicyclo[2.2.1]heptan-5-yl]pyridin-3-yl]-6,7-dihydro-5H-pyrazolo[5,1-b][1,3]oxazine-3-carboxamide] | 44 nM | > 25000 nM |
| O=C(N[C@H]1N=C(c2ccccc2)c2ccccc2NC1=O)c1nn2c(c1-c1ccccc1F)OCC2 [Example 37, 7-(2-Fluorophenyl)-N-[(3S)-2-oxo-5-phenyl-1,3-dihydro-1,4-benzodiazepin-3-yl]-2,3-dihydropyrazolo[5,1-b][1,3]oxazole-6-carboxamide] | 333 nM | > 25000 nM |
| O=C(N[C@H]1N=C(c2ccccc2)c2cccc(F)c2NC1=O)c1c(-c2ccccc2F)nn2c1OCC1(CCC1)C2 [Example 185, 2-(2-Fluorophenyl)-N-[(3S)-9-fluoro-2-oxo-5-phenyl-1,3-dihydro-1,4-benzodiazepin-3-yl]spiro[5,7-dihydropyrazolo[5,1-b][1,3]oxazine-6,1′-cyclobutane]-3-carboxamide] | 32 nM | > 25000 nM |
| O=C(N[C@H]1N=C(c2ccccc2)c2ccccc2NC1=O)c1c(-c2ccc(F)cc2F)nn2c1OCC(CO)C2 (stereo partly drawn) [Example 131, 2-(2,4-Difluorophenyl)-6-(hydroxymethyl)-N-[(3S)-2-oxo-5-phenyl-1,3-dihydro-1,4-benzodiazepin-3-yl]-6,7-dihydro-5H-pyrazolo[5,1-b][1,3]oxazine-3-carboxamide] | 93 nM | > 25000 nM |
